For seven cell lines, relative viability results are on record in the supplement of paper PMC10307832.

Holding throughout (assay): relative viability (nuclei count vs DMSO), 5 days (fraction); higher = more cells survive
Compound in the test “XMD8-85 + Foretinib”: CN1CCN(CC1)C2=CC(=C(C=C2)NC3=NC=C4C(=N3)N(C5=CC=CC=C5C(=O)N4C)C)OC [XMD8-85] + COc1cc2c(Oc3ccc(NC(=O)C4(C(=O)Nc5ccc(F)cc5)CC4)cc3F)ccnc2cc1OCCCN1CCOCC1 [Foretinib] (partner 0.25 µM)
An outline of the steps: (§1)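 Values are medians from duplicate plates. Each reflects relative viability, defined as the nuclei count of treated wells over that of vehicle wells. Lung cancer cell lines in 1536-well plates were pin-tool dosed one day after seeding with one drug alone or with a fixed anchor-drug dose plus five library-drug doses (not always all listed) in √10 steps, then fixed, stained and imaged at 4× after 5 days.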

Compound in the test “XMD8-85 + Lapatinib”: CN1CCN(CC1)C2=CC(=C(C=C2)NC3=NC=C4C(=N3)N(C5=CC=CC=C5C(=O)N4C)C)OC [XMD8-85] + CS(=O)(=O)CCNCc1ccc(-c2ccc3ncnc(Nc4ccc(OCc5cccc(F)c5)c(Cl)c4)c3c2)o1 [Lapatinib] (partner 2 µM)
Summed up:
as §1

Compound in the test “4EGI-1 + OSI-027”: O=C(O)C(Cc1ccccc1[N+](=O)[O-])=NNc1nc(-c2ccc(Cl)c(Cl)c2)cs1 (mixture of isomers) [4EGI-1] + COc1cccc2cc(-c3nc([C@H]4CC[C@H](C(=O)O)CC4)n4ncnc(N)c34)[nH]c12 [OSI-027] (partner 0.5 µM)
Summed up: as §1

Compound in the test “4EGI-1 + AZD7762”: O=C(O)C(Cc1ccccc1[N+](=O)[O-])=NNc1nc(-c2ccc(Cl)c(Cl)c2)cs1 (mixture of isomers) [4EGI-1] + NC(=O)Nc1cc(-c2cccc(F)c2)sc1C(=O)N[C@H]1CCCNC1 [AZD7762] (partner 0.2 µM)
Summed up: as §1

As to NCI-H596, the relative viability worked out at 0.844 with XMD8-85 + Foretinib (first compound 0.08 µM); 0.85 with XMD8-85 + Foretinib (first compound 0.253 µM); 0.983 with XMD8-85 + Foretinib (first compound 0.8 µM); 0.642 with XMD8-85 + Foretinib (first compound 2.53 µM); 0.502 with XMD8-85 + Foretinib (first compound 8 µM); 1.01 with XMD8-85 + Lapatinib (first compound 0.08 µM). Moreover, the relative viability was 1.03 in the test with XMD8-85 + Lapatinib (first compound 0.253 µM); 1.24 with XMD8-85 + Lapatinib (first compound 0.8 µM); 1.03 in the test with XMD8-85 + Lapatinib (first compound 2.53 µM); 0.874 with XMD8-85 + Lapatinib (first compound 8 µM); 0.844 in the test with 4EGI-1 + OSI-027 (first compound 0.5 µM); 0.579 with 4EGI-1 + OSI-027 (first compound 1.581 µM). The relative viability in the test with 4EGI-1 + OSI-027 (first compound 5 µM) was found to be 0.905; with 4EGI-1 + OSI-027 (first compound 15.81 µM), 0.62; with 4EGI-1 + OSI-027 (first compound 50 µM) it was 0.518; in the test with 4EGI-1 + AZD7762 (first compound 0.5 µM), 1.07; with 4EGI-1 + AZD7762 (first compound 1.581 µM), 1.21; in the test with 4EGI-1 + AZD7762 (first compound 5 µM), 1.31. Also, the values for the relative viability in the test with 4EGI-1 + AZD7762 (first compound 15.81 µM) and with 4EGI-1 + AZD7762 (first compound 50 µM) were 0.769 and 0.279, respectively.
Consider NCI-H2347, for which the relative viability with XMD8-85 + Foretinib (first compound 0.08 µM) was 0.75; with XMD8-85 + Foretinib (first compound 0.253 µM), 0.836; in the test with XMD8-85 + Foretinib (first compound 0.8 µM) it was 0.829; with XMD8-85 + Foretinib (first compound 2.53 µM), 1.07; with XMD8-85 + Foretinib (first compound 8 µM) it was 0.758; with XMD8-85 + Lapatinib (first compound 0.08 µM) it was 0.892. Further, the relative viability with XMD8-85 + Lapatinib (first compound 0.253 µM) came to 0.958; with XMD8-85 + Lapatinib (first compound 0.8 µM), 0.9; with XMD8-85 + Lapatinib (first compound 2.53 µM), 1.02; in the test with XMD8-85 + Lapatinib (first compound 8 µM) it was 0.771; with 4EGI-1 + OSI-027 (first compound 0.5 µM), 0.404; with 4EGI-1 + OSI-027 (first compound 5 µM) it was 0.475. For the same cell line, the relative viability with 4EGI-1 + OSI-027 (first compound 15.81 µM) amounted to 0.389; with 4EGI-1 + OSI-027 (first compound 50 µM) it was 0.405; with 4EGI-1 + AZD7762 (first compound 0.5 µM), 0.858; in the test with 4EGI-1 + AZD7762 (first compound 1.581 µM), 0.78; with 4EGI-1 + AZD7762 (first compound 5 µM), 0.734; with 4EGI-1 + AZD7762 (first compound 15.81 µM), 0.732. Further, the relative viability with 4EGI-1 + AZD7762 (first compound 50 µM) was 0.593.
For the cell line NCI-H2126, the relative viability with XMD8-85 + Foretinib (first compound 0.08 µM) was determined as 1.07; with XMD8-85 + Foretinib (first compound 0.253 µM), 1.03; with XMD8-85 + Foretinib (first compound 0.8 µM), 1.13; with XMD8-85 + Foretinib (first compound 2.53 µM), 0.996; in the test with XMD8-85 + Foretinib (first compound 8 µM) it was 0.935; with XMD8-85 + Lapatinib (first compound 0.08 µM), 0.705. Besides, the relative viability in the test with XMD8-85 + Lapatinib (first compound 0.253 µM) stood at 0.714; with XMD8-85 + Lapatinib (first compound 0.8 µM), 0.757; with XMD8-85 + Lapatinib (first compound 2.53 µM), 0.837; with XMD8-85 + Lapatinib (first compound 8 µM), 0.646; with 4EGI-1 + OSI-027 (first compound 0.5 µM) it was 0.721; in the test with 4EGI-1 + OSI-027 (first compound 1.581 µM), 0.697. The relative viability in the test with 4EGI-1 + OSI-027 (first compound 5 µM) stood at 0.778; with 4EGI-1 + OSI-027 (first compound 15.81 µM) it was 0.572; with 4EGI-1 + OSI-027 (first compound 50 µM), 0.511; in the test with 4EGI-1 + AZD7762 (first compound 0.5 µM), 1.03; in the test with 4EGI-1 + AZD7762 (first compound 1.581 µM), 1.09; with 4EGI-1 + AZD7762 (first compound 5 µM) it was 1. The figures for the relative viability with 4EGI-1 + AZD7762 (first compound 15.81 µM) and in the test with 4EGI-1 + AZD7762 (first compound 50 µM) were 0.901 and 0.772, respectively.
On to HCC-78, for which the relative viability with XMD8-85 + Foretinib (first compound 0.08 µM) was 0.539; with XMD8-85 + Foretinib (first compound 0.253 µM), 0.572; with XMD8-85 + Foretinib (first compound 0.8 µM), 0.519; in the test with XMD8-85 + Foretinib (first compound 2.53 µM), 0.537; in the test with XMD8-85 + Foretinib (first compound 8 µM), 0.531; with XMD8-85 + Lapatinib (first compound 0.08 µM), 0.84. For the same cell line, the relative viability with XMD8-85 + Lapatinib (first compound 0.8 µM) came to 0.751; in the test with XMD8-85 + Lapatinib (first compound 2.53 µM), 0.565; in the test with XMD8-85 + Lapatinib (first compound 8 µM), 0.223; with 4EGI-1 + OSI-027 (first compound 0.5 µM), 0.356; with 4EGI-1 + OSI-027 (first compound 5 µM), 0.38; with 4EGI-1 + OSI-027 (first compound 15.81 µM), 0.34. The relative viability in the test with 4EGI-1 + OSI-027 (first compound 50 µM) came out at 0.362; with 4EGI-1 + AZD7762 (first compound 0.5 µM), 0.617; with 4EGI-1 + AZD7762 (first compound 5 µM) it was 0.651; with 4EGI-1 + AZD7762 (first compound 15.81 µM), 0.451; in the test with 4EGI-1 + AZD7762 (first compound 50 µM), 0.512.
Regarding HARA, the relative viability with XMD8-85 + Foretinib (first compound 0.08 µM) came to 1.09; with XMD8-85 + Foretinib (first compound 0.253 µM), 0.701; with XMD8-85 + Foretinib (first compound 0.8 µM) it was 0.97; with XMD8-85 + Foretinib (first compound 2.53 µM) it was 0.782; with XMD8-85 + Foretinib (first compound 8 µM) it was 0.583; with XMD8-85 + Lapatinib (first compound 0.08 µM) it was 0.761. Further, the relative viability with XMD8-85 + Lapatinib (first compound 0.253 µM) is 0.781; with XMD8-85 + Lapatinib (first compound 0.8 µM), 0.907; with XMD8-85 + Lapatinib (first compound 2.53 µM), 0.787; with XMD8-85 + Lapatinib (first compound 8 µM) it was 0.569; with 4EGI-1 + OSI-027 (first compound 0.5 µM) it was 0.651; in the test with 4EGI-1 + OSI-027 (first compound 1.581 µM), 0.517. The relative viability with 4EGI-1 + OSI-027 (first compound 5 µM) is 0.648; in the test with 4EGI-1 + OSI-027 (first compound 15.81 µM), 0.453; with 4EGI-1 + OSI-027 (first compound 50 µM), 0.154; in the test with 4EGI-1 + AZD7762 (first compound 0.5 µM), 0.397; in the test with 4EGI-1 + AZD7762 (first compound 1.581 µM), 0.48; with 4EGI-1 + AZD7762 (first compound 5 µM) it was 0.241. The values for the relative viability with 4EGI-1 + AZD7762 (first compound 15.81 µM) and with 4EGI-1 + AZD7762 (first compound 50 µM) were 0.195 and 0.161, respectively.
A-427: the relative viability in the test with XMD8-85 + Foretinib (first compound 0.08 µM) was found to be 1.22; in the test with XMD8-85 + Foretinib (first compound 0.253 µM), 1.03; with XMD8-85 + Foretinib (first compound 0.8 µM), 1.12; with XMD8-85 + Foretinib (first compound 2.53 µM) it was 0.889; with XMD8-85 + Foretinib (first compound 8 µM), 0.828; in the test with XMD8-85 + Lapatinib (first compound 0.08 µM), 1.05. In addition, the relative viability is 0.994 with XMD8-85 + Lapatinib (first compound 0.253 µM); 1.09 in the test with XMD8-85 + Lapatinib (first compound 0.8 µM); 1.1 in the test with XMD8-85 + Lapatinib (first compound 2.53 µM); 0.937 in the test with XMD8-85 + Lapatinib (first compound 8 µM); 0.604 in the test with 4EGI-1 + OSI-027 (first compound 0.5 µM); 0.386 with 4EGI-1 + OSI-027 (first compound 1.581 µM). Moreover, the relative viability with 4EGI-1 + OSI-027 (first compound 5 µM) stood at 0.534; with 4EGI-1 + OSI-027 (first compound 15.81 µM), 0.44; in the test with 4EGI-1 + OSI-027 (first compound 50 µM) it was 0.152; with 4EGI-1 + AZD7762 (first compound 0.5 µM) it was 0.819; with 4EGI-1 + AZD7762 (first compound 5 µM) it was 0.715; with 4EGI-1 + AZD7762 (first compound 15.81 µM), 0.513. Further, the relative viability in the test with 4EGI-1 + AZD7762 (first compound 50 µM) was determined as 0.231.
On to PC-3 [JPC-3], for which the relative viability in the test with XMD8-85 + Foretinib (first compound 0.08 µM) is 1.05; with XMD8-85 + Foretinib (first compound 0.253 µM), 1.04; with XMD8-85 + Foretinib (first compound 0.8 µM) it was 1.04; with XMD8-85 + Foretinib (first compound 2.53 µM) it was 1.19; with XMD8-85 + Foretinib (first compound 8 µM), 0.912; in the test with XMD8-85 + Lapatinib (first compound 0.08 µM), 0.405. For the same cell line, the relative viability is 0.466 with XMD8-85 + Lapatinib (first compound 0.253 µM); 0.477 with XMD8-85 + Lapatinib (first compound 0.8 µM); 0.492 with XMD8-85 + Lapatinib (first compound 2.53 µM); 0.422 in the test with XMD8-85 + Lapatinib (first compound 8 µM); 0.778 with 4EGI-1 + OSI-027 (first compound 0.5 µM); 0.73 with 4EGI-1 + OSI-027 (first compound 1.581 µM). Further, the relative viability was found to be 0.746 with 4EGI-1 + OSI-027 (first compound 5 µM); 0.498 in the test with 4EGI-1 + OSI-027 (first compound 50 µM); 0.845 with 4EGI-1 + AZD7762 (first compound 0.5 µM); 0.868 with 4EGI-1 + AZD7762 (first compound 5 µM); 0.519 with 4EGI-1 + AZD7762 (first compound 15.81 µM); 0.323 with 4EGI-1 + AZD7762 (first compound 50 µM).
